Results: PubChem BioAssay (NCI)
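Growth conditions: 96-well plates. Treatment: test compound, 48 hours, 5 concentrations. Analysis: linear interpolation between bracketing concentrations; unreached endpoints set to highest concentration. TGI: concentration producing complete growth inhibition.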

Columns and labels:
Test in all cases: NCI-60 cell line screen, 48 h
UACC-62 melanoma = system: UACC-62 melanoma
OVCAR-8 ovarian = system: OVCAR-8 ovarian
UACC-257 melanoma = system: UACC-257 melanoma
LOX IMVI melanoma = system: LOX IMVI melanoma
XF 498 CNS = system: XF 498 CNS
SR leukemia = system: SR leukemia
COLO 205 colon = system: COLO 205 colon
NCI-H23 lung = system: NCI-H23 lung
HOP-62 NSCLC = system: HOP-62 NSCLC
NCI-H226 lung = system: NCI-H226 lung
SF-268 CNS = system: SF-268 CNS
IGROV1 ovarian = system: IGROV1 ovarian
M14 melanoma = system: M14 melanoma
HT29 colon = system: HT29 colon
DMS 114 small cell lung = system: DMS 114 small cell lung
K-562 leukemia = system: K-562 leukemia
OVCAR-4 ovarian = system: OVCAR-4 ovarian
HCT-116 colon = system: HCT-116 colon
HOP-92 NSCLC = system: HOP-92 NSCLC
A498 renal = system: A498 renal
KM20L2 colon = system: KM20L2 colon
HCC-2998 colon = system: HCC-2998 colon
DLD-1 colon = system: DLD-1 colon
EKVX NSCLC = system: EKVX NSCLC
SNB-75 CNS = system: SNB-75 CNS
KM12 colon = system: KM12 colon
HCT-15 colon = system: HCT-15 colon
NCI-H460 lung = system: NCI-H460 lung
786-0 renal = system: 786-0 renal
RXF 393 renal = system: RXF 393 renal
RPMI-8226 leukemia = system: RPMI-8226 leukemia
OVCAR-3 ovarian = system: OVCAR-3 ovarian
SW-620 colon = system: SW-620 colon
LXFL 529 NSCLC = system: LXFL 529 NSCLC
CAKI-1 renal = system: CAKI-1 renal
A549 NSCLC = system: A549 NSCLC
HL-60(TB) leukemia = system: HL-60(TB) leukemia
SK-MEL-5 melanoma = system: SK-MEL-5 melanoma
SK-MEL-2 melanoma = system: SK-MEL-2 melanoma
U251 CNS = system: U251 CNS
SK-OV-3 ovarian = system: SK-OV-3 ovarian
HOP-18 NSCLC = system: HOP-18 NSCLC
DMS 273 small cell lung = system: DMS 273 small cell lung
ACHN renal = system: ACHN renal
CCRF-CEM leukemia = system: CCRF-CEM leukemia
SF-539 CNS = system: SF-539 CNS
SNB-19 CNS = system: SNB-19 CNS
M19-MEL melanoma = system: M19-MEL melanoma
SNB-78 CNS = system: SNB-78 CNS
UO-31 renal = system: UO-31 renal
TK-10 renal = system: TK-10 renal
SF-295 CNS = system: SF-295 CNS
SK-MEL-28 melanoma = system: SK-MEL-28 melanoma
MOLT-4 leukemia = system: MOLT-4 leukemia
SN12C renal = system: SN12C renal
MALME-3M melanoma = system: MALME-3M melanoma
OVCAR-5 ovarian = system: OVCAR-5 ovarian
NCI-H522 lung = system: NCI-H522 lung
MDA-MB-435 = system: MDA-MB-435
NCI/ADR-RES ovarian = system: NCI/ADR-RES ovarian
HS 578T breast = system: HS 578T breast
PC-3 prostate = system: PC-3 prostate
BT-549 breast = system: BT-549 breast
MDA-N = system: MDA-N
MCF7 breast = system: MCF7 breast
MDA-MB-231 breast = system: MDA-MB-231 breast
DU-145 prostate = system: DU-145 prostate
T-47D breast = system: T-47D breast

Measured: TGI

CC(C)(C)C1=CC(=N/N=c2\scc(-c3ccccc3)n2-c2ccccc2)C=C(C(C)(C)C)C1=O
> 100 µM: UACC-62 melanoma | OVCAR-8 ovarian | UACC-257 melanoma | LOX IMVI melanoma | XF 498 CNS | SR leukemia | COLO 205 colon | NCI-H23 lung | HOP-62 NSCLC | NCI-H226 lung | SF-268 CNS | IGROV1 ovarian | M14 melanoma | HT29 colon | DMS 114 small cell lung | K-562 leukemia | OVCAR-4 ovarian | HCT-116 colon | HOP-92 NSCLC | A498 renal | KM20L2 colon | HCC-2998 colon | DLD-1 colon | EKVX NSCLC | SNB-75 CNS | KM12 colon | HCT-15 colon | NCI-H460 lung | 786-0 renal | RXF 393 renal | RPMI-8226 leukemia | OVCAR-3 ovarian | SW-620 colon | LXFL 529 NSCLC | CAKI-1 renal | A549 NSCLC | HL-60(TB) leukemia | SK-MEL-5 melanoma | SK-MEL-2 melanoma | U251 CNS | SK-OV-3 ovarian | HOP-18 NSCLC | DMS 273 small cell lung | ACHN renal | CCRF-CEM leukemia | SF-539 CNS | SNB-19 CNS | M19-MEL melanoma | SNB-78 CNS | UO-31 renal | TK-10 renal | SF-295 CNS | SK-MEL-28 melanoma | MOLT-4 leukemia | SN12C renal | MALME-3M melanoma | OVCAR-5 ovarian | NCI-H522 lung

C#CC1(O)CCC2[C@@H]3CCc4cc(Oc5nc(F)nc(-c6c(C)c(C(=O)OCC)n7ccccc67)n5)ccc4C3CC[C@@]21C (some centres not stated)
> 100 µM: UACC-62 melanoma | OVCAR-8 ovarian | UACC-257 melanoma | LOX IMVI melanoma | SR leukemia | COLO 205 colon | NCI-H23 lung | HOP-62 NSCLC | MDA-MB-435 | NCI-H226 lung | SF-268 CNS | IGROV1 ovarian | M14 melanoma | HT29 colon | NCI/ADR-RES ovarian | K-562 leukemia | OVCAR-4 ovarian | HCT-116 colon | HOP-92 NSCLC | A498 renal | HCC-2998 colon | EKVX NSCLC | SNB-75 CNS | HS 578T breast | KM12 colon | HCT-15 colon | PC-3 prostate | NCI-H460 lung | BT-549 breast | 786-0 renal | RXF 393 renal | RPMI-8226 leukemia | OVCAR-3 ovarian | SW-620 colon | MDA-N | CAKI-1 renal | A549 NSCLC | MCF7 breast | MDA-MB-231 breast | HL-60(TB) leukemia | SK-MEL-5 melanoma | SK-MEL-2 melanoma | U251 CNS | SK-OV-3 ovarian | ACHN renal | CCRF-CEM leukemia | SF-539 CNS | SNB-19 CNS | DU-145 prostate | UO-31 renal | TK-10 renal | T-47D breast | SF-295 CNS | SK-MEL-28 melanoma | MOLT-4 leukemia | SN12C renal | MALME-3M melanoma | OVCAR-5 ovarian | NCI-H522 lung
